# Experimental data published in patent publication US4191698A, “Tricyclopentyltin fluoride” (priority 1977, dated 1980).
# Assays:
# Assay type in all cases: in vivo
# grape = assay: Phytotoxicity to host plant in grape downy mildew test (rating 0-2); parameters: key to Phytotoxicity: 0: indicates no phytotoxicity; 1: indicates that the degree of phytotoxicity was sufficient to make the plant commercially worthless; 2: indicates that the plant was killed; settings: for Phytotoxicity: rating 0-2
# Method: (§1) The efficacy of tricyclopentyltin fluoride as a control agent for three different plant fungi (grape downy mildew, apple powdery mildew and wheat leaf rust) was evaluated and compared with the performance of several other tricyclopentyltin compounds. The results of this evaluation are disclosed in the following tables 2, 3 and 4. The phytotoxicity of the various compounds tested was also evaluated at various concentration levels. […] Quantitative ratings for phytotoxicity are given in each of the first three tables. A rating of 0 indicates no phytotoxicity.
# (§2) Host plants, (grape, wheat or apple, depending upon the fungus) are sprayed with a water suspension of the test compound and then inoculated with the pathogen. A number of control plants that have not been sprayed are also inoculated. After disease symptoms are well developed on the untreated control plants the test plants are graded for disease control.
# [1] = system: Grape Downy Mildew (Plasmopara viticola); assay: Grape downy mildew control (Procedure 3)
# Source text: (§3) PROCEDURE 3--Employed Using Grape Downy Mildew (Plasmopara viticola), Wheat Leaf Rust (Puccinia recondita) and Apple Powdery Mildew (Podosphaera leucotricha)
# as §2
# wheat [2] = assay: Phytotoxicity to host plant in wheat leaf rust test (rating 0-2); parameters: key: 0: indicates no phytotoxicity; 1: indicates that the degree of phytotoxicity was sufficient to make the plant commercially worthless; 2: indicates that the plant was killed; settings: 300 ppm
# Method: as §1, §2
# wheat [3] = assay: Phytotoxicity applied to wheat (scale 0-5); parameters: key: 0: no phytotoxicity; 1: very slight injury, the minimum that could be observed; 2: less than 10% of leaf surface injured; 3: 10-50% of leaf surface injured; 4: 50-90% of leaf surface injured; 5: plant killed
# Method: (§4) The phytotoxicity of a number of tricyclopentyltin compounds and triphenyltin hydroxide on grape vines, wheat and barley was evaluated quantitatively using the following scale:
# (§5) If the rating was considered to be somewhere between two integers based on observations of other plants, the lower integer followed by "0.5" was employed as the rating.
# [4] = system: Apple Powdery Mildew (Podosphaera leucotricha); assay: Apple powdery mildew control (Procedure 3)
# Source text: as §3, §2
# Barley = assay: Phytotoxicity applied to barley (scale 0-5); parameters: key: 0: no phytotoxicity; 1: very slight injury, the minimum that could be observed; 2: less than 10% of leaf surface injured; 3: 10-50% of leaf surface injured; 4: 50-90% of leaf surface injured; 5: plant killed
# Method: as §4, §5
# [5] = system: Wheat Leaf Rust (Puccinia recondita); assay: Wheat leaf rust control (Procedure 3); settings: 300 ppm
# Source text: as §3, §2
# Grape Vines = assay: Phytotoxicity applied to grape vines (scale 0-5); parameters: key to Phytotoxicity: 0: no phytotoxicity; 1: very slight injury, the minimum that could be observed; 2: less than 10% of leaf surface injured; 3: 10-50% of leaf surface injured; 4: 50-90% of leaf surface injured; 5: plant killed; settings: for Phytotoxicity: scale 0-5
# Method: as §4, §5
Compound,Phytotoxicity (grape; 75 ppm),Phytotoxicity (grape; 300 ppm),Phytotoxicity (wheat [2]),Phytotoxicity (wheat [3]; 75 ppm),Phytotoxicity (wheat [3]; 300 ppm),Phytotoxicity (wheat [3]; 1200 ppm),Phytotoxicity (Barley; 38 ppm),Phytotoxicity (Barley; 150 ppm),Phytotoxicity (Barley; 600 ppm),Phytotoxicity (Grape Vines; 75 ppm),Phytotoxicity (Grape Vines; 300 ppm),Phytotoxicity (Grape Vines; 1200 ppm),% Control ([4]; 75 ppm) [%],further results
Tricyclopentyltin benzoate,0,1,–,–,–,–,–,–,–,–,–,–,–,% Control ([1]; 75 ppm): 50%; % Control ([1]; 300 ppm): 75%
[Cl][Sn]([CH]1CCCC1)([CH]1CCCC1)[CH]1CCCC1 [Tricyclopentyltin chloride],–,–,2,1,3 (10-50% of leaf surface injured),5,–,–,–,–,–,–,–,–
[F][Sn]([CH]1CCCC1)([CH]1CCCC1)[CH]1CCCC1 [Tricyclopentyltin fluoride],0,0,0,0,0,1.5,0,1,2 (less than 10% of leaf surface injured),0,1.5,3.5,–,"phytotoxic effects (in words) (grape; 300 ppm): did not produce any phytotoxic effects; control rating (comparison in words) ([1]; 75 ppm): higher than the two other tricyclopentyltin compounds; activity against representative plant fungi (comparison in words) ([1]; representative plant fungi of Tables 2-4): highest activity against representative plant fungi of all the compounds tested; efficacy (comparison in words) ([4]; 75 ppm): considerably higher than the other compounds tested; control of wheat leaf rust (in words) [5]: effectively controlled wheat leaf rust; damage to plants (comparison in words) (Grape Vines; Tables 5-7: grape vines, wheat and barley): least damaging to the plants"
[OH][Sn]([CH]1CCCC1)([CH]1CCCC1)[CH]1CCCC1 [Tricyclopentyltin hydroxide],0,1,0,0,1,2.5,1,2 (less than 10% of leaf surface injured),3.5,1,2.5,4.5,–,–
Tricyclopentyltin acetate,–,–,–,–,–,–,1,2 (less than 10% of leaf surface injured),3.5,2 (less than 10% of leaf surface injured),4 (50-90% of leaf surface injured),5,25,–
[OH][Sn]([c]1ccccc1)([c]1ccccc1)[c]1ccccc1 [Triphenyltin hydroxide],1,1,0,–,–,–,1,3 (10-50% of leaf surface injured),4 (50-90% of leaf surface injured),2.5,3.5,5,25,phytotoxicity (in words) (grape; 75 ppm): too phytotoxic to be commercially useful; % Control ([1]; 75 ppm): 95%; control rating (comparison in words) ([1]; 75 ppm): higher control rating at this level; % Control ([1]; 300 ppm): 100%; % Control [5]: 25%
Tricyclopentyltin phenoxide,–,–,–,–,–,–,–,–,–,–,–,–,50,% Control ([4]; 300 ppm): 83%
